This passage reports IC50 results from patent US9856279B2 (AGIOS PHARMACEUTICALS, INC, priority 2011, dated 2018).

The subject of one assay is HT1080 cells. The assay is described as follows: Cellular assay for IDH1m inhibitors: inhibition of 2-HG production (LC-MS, 48 hours) in HT1080 cells. The assay is classed as cell-based. The settings on record: Homo sapiens, HT-1080; inhibition of 2-HG production, HT1080 cells; read-out: HT1080 IC50. The gist of the method:
(§1)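 The read-out is 2-HG in culture medium, measured by LC-MS after 48 h of compound exposure (0.2% DMSO) in cells plated overnight at 5000 per well in DMEM/10% FBS. IC50 is 50% reduction relative to DMSO wells. Luminescent viability (Cell Titer Glo) followed at 72 h.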

The next assay deals with IDH1 R132H (Homo sapiens, UniProt O75874, R132H). The assay is described as follows: Assay for IDH1 R132H inhibitors (NADPH/aKG, resazurin detection). The settings on record: enzyme assay of Example 12; read-out: IDH1R132H IC50. The assay is classed as biochemical. The gist of the method:
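Compound added to substrate mix (8 uM NADPH, 2 mM aKG), then enzyme mix (0.2 μg/ml IDH1 R132H); 50 min RT in 20 mM Tris pH 7.5, 150 mM NaCl, 10 mM MgCl2, 0.03% BSA. Resazurin detection mix (30 μM) 5 min RT; resorufin fluorescence Ex544/Em590.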
(Resazurin is reduced to fluorescent resorufin, in cell work by metabolically active cells.)

The next assay deals with U87MG cells. The assay is described as follows: Cellular assay for IDH1m inhibitors: inhibition of 2-HG production (LC-MS, 48 hours) in U87MG cells. The settings on record: Homo sapiens, U-87 MG, inhibition of 2-HG production, U87R132H cells; read-out: U87R132H IC50. The assay is classed as cell-based. The gist of the method:
as §1

IDH1 R132H, sequence (O75874 whole entry R132H): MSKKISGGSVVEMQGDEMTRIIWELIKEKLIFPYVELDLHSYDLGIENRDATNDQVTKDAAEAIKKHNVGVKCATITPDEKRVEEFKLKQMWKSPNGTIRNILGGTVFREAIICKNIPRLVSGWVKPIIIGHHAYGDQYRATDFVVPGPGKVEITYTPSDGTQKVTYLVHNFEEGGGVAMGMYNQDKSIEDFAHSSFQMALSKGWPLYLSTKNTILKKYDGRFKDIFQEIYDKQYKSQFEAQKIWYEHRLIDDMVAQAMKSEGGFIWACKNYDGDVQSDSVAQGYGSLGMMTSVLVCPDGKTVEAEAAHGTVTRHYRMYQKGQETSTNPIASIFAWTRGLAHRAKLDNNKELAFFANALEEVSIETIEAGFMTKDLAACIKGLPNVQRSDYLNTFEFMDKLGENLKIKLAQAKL

Regarding `C=Cc1cnnc(-c2cc(C#N)c(N3CCN(C(=O)C[C@H]4CCO4)[C@H](C4CC4)C3)nc2C2CC2)c1` [Compound 766, 6-cyclopropyl-2-((R)-3-cyclopropyl-4-(2-((R)-oxetan-2-yl)acetyl)piperazin-1-yl)-5-(5-vinylpyridazin-3-yl)nicotinonitrile], the IC50 in the assay on HT1080 cells, at IDH1 R132H and in the assay on U87MG cells was < 500 nM each time.

With `C=Cc1cc(-c2cc(C#N)c(N3CCN(C(C)=O)[C@H](C4CC4)C3)nc2C2CC2)ccn1` [Compound 562, (R)-6-(4-acetyl-3-cyclopropylpiperazin-1-yl)-2-cyclopropyl-2′-vinyl-3,4′-bipyridine-5-carbonitrile], the concentration for half-maximal inhibition (IC50) with HT1080 cells, on IDH1 R132H and with U87MG cells was < 500 nM each time.

For the compound `N#Cc1cc(-c2ccc3ncoc3c2)c(C2CC2)nc1N1CCN(C(=O)C2CC2)[C@H](C2CC2)C1` [Compound 466, (R)-5-(benzo[d]oxazol-6-yl)-2-(4-(cyclopropanecarbonyl)-3-cyclopropylpiperazin-1-yl)-6-cyclopropylnicotinonitrile], the IC50 was 1000 to 10000 nM in the assay with HT1080 cells, < 500 nM on IDH1 R132H and 500 to 1000 nM in the assay with U87MG cells.

For the compound `COCCC(=O)N1CCN(c2nc(C3CC3)c(-c3cccc(CNS(C)(=O)=O)c3)c(C)c2C#N)C[C@H]1C` [Compound 335, (R)—N-(3-{5-cyano-2-cyclopropyl-6-[4-(3-methoxy-propionyl)-3-methyl-piperazin-1-yl]-4-methyl-pyridin-3-yl}-benzyl)-methanesulfonamide], the 50% inhibitory concentration (IC50) with HT1080 cells was 500 to 1000 nM; on IDH1 R132H, < 500 nM; in the assay with U87MG cells, < 500 nM.

For the compound `COCCC(=O)N1CCN(c2nc(C3CC3)c(-c3ccc4cc(OC)ccc4c3)c(C)c2C#N)C[C@H]1C` [Compound 278, (R)-6-cyclopropyl-5-(6-methoxynaphthalen-2-yl)-2-(4-(3-methoxypropanoyl)-3-methylpiperazin-1-yl)-4-methylnicotinonitrile], the IC50 in the assay on HT1080 cells fell in the range of 1000 to 10000 nM; at IDH1 R132H, 500 to 1000 nM; in the assay on U87MG cells, 1000 to 10000 nM.

`COCCC(=O)N1CCN(c2nc(C3CC3)c(-c3ccc(F)cc3F)c(C)c2C#N)C[C@H]1C` [Compound 264, 6-cyclopropyl-5-(2,4-difluorophenyl)-2-((R)-4-(3-methoxypropanoyl)-3-methylpiperazin-1-yl)-4-methylnicotinonitrile]: the values for the concentration for half-maximal inhibition (IC50) in the assay with HT1080 cells, at IDH1 R132H and in the assay with U87MG cells were 1000 to 10000 nM, 500 to 1000 nM and 1000 to 10000 nM, respectively.

`COCCC(=O)N1CCN(c2nc(C3CC3)c(-c3ccc4oc(=O)[nH]c4c3)cc2C#N)C[C@H]1C` [Compound 473, (R)-6-cyclopropyl-2-[4-(3-methoxy-propionyl)-3-methyl-piperazin-1-yl]-5-(2-oxo-2,3-dihydro-benzooxazol-5-yl)-nicotinonitrile]: the IC50 in the assay with HT1080 cells is 1000 to 10000 nM; at IDH1 R132H, < 500 nM; in the assay on U87MG cells it was 500 to 1000 nM.

Turning to `C=Cc1cc(-c2cc(C#N)c(N3CCN(C(=O)CCOC)[C@H](C4CC4)C3)nc2C2CC2)ncn1` [Compound 638, (R)-6-cyclopropyl-2-(3-cyclopropyl-4-(3-methoxypropanoyl)piperazin-1-yl)-5-(6-vinylpyrimidin-4-yl)nicotinonitrile], the IC50 in the assay on HT1080 cells, at IDH1 R132H and in the assay with U87MG cells was < 500 nM in each case.

As to `C=Cc1ccnc(Nc2cc(C#N)c(N3CCN(C(=O)CCOC)[C@H](C)C3)nc2C2CC2)c1` [Compound 647, (R)-6-cyclopropyl-2-(4-(3-methoxypropanoyl)-3-methylpiperazin-1-yl)-5-((4-vinylpyridin-2-yl)amino)nicotinonitrile], the concentration for half-maximal inhibition (IC50) in the assay on HT1080 cells, on IDH1 R132H and with U87MG cells was < 500 nM each time.

On to `COCCC(=O)N1CCN(c2nc(C3CC3)c(-c3cccc(C#N)c3)cc2C#N)C[C@H]1C` [Compound 283, (R)-5-(3-cyanophenyl)-6-cyclopropyl-2-(4-(3-methoxypropanoyl)-3-methylpiperazin-1-yl)nicotinonitrile], for which the IC50 in the assay on HT1080 cells is 500 to 1000 nM; on IDH1 R132H, < 500 nM; in the assay on U87MG cells, 1000 to 10000 nM.

In the case of `C=Cc1ccnc(Nc2cc(C#N)c(N3CCN(C(=O)CCO)[C@H](C4CC4)C3)nc2C2CC2)c1` [Compound 756, (R)-6-cyclopropyl-2-(3-cyclopropyl-4-(3-hydroxypropanoyl)piperazin-1-yl)-5-((4-vinylpyridin-2-yl)amino)nicotinonitrile], the 50% inhibitory concentration (IC50) with HT1080 cells, on IDH1 R132H and in the assay on U87MG cells was < 500 nM each time.

As for `C=Cc1cc(-c2c(C3CC3)nc(N3CCN(C(=O)C[C@H]4CCO4)[C@H](C(C)C)C3)c(C#N)c2C)cnn1` [Compound 786, 6-cyclopropyl-2-((R)-3-isopropyl-4-(2-((R)-oxetan-2-yl)acetyl)piperazin-1-yl)-4-methyl-5-(6-vinylpyridazin-4-yl)nicotinonitrile], the half-maximal inhibitory concentration (IC50) in the assay on HT1080 cells, on IDH1 R132H and with U87MG cells was < 500 nM throughout.

Take `COCCC(=O)N1CCN(c2nc(C3CC3)c(-c3ccc4ncccc4c3)cc2C#N)C[C@H]1C` [Compound 353, (R)-6-cyclopropyl-2-[4-(3-methoxy-propionyl)-3-methyl-piperazin-1-yl]-5-quinolin-6-yl-nicotinonitrile]: the 50% inhibitory concentration (IC50) in the assay on HT1080 cells was 500 to 1000 nM; at IDH1 R132H, < 500 nM; in the assay on U87MG cells it was 500 to 1000 nM.

For the compound `C=Cc1nccc2ccc(-c3cc(C#N)c(N4CCN(C(=O)C5CC5)[C@H](C5CC5)C4)nc3C3CC3)cc12` [Compound 710, (R)-2-(4-(cyclopropanecarbonyl)-3-cyclopropylpiperazin-1-yl)-6-cyclopropyl-5-(1-vinylisoquinolin-7-yl)nicotinonitrile], the IC50 in the assay on HT1080 cells, on IDH1 R132H and in the assay with U87MG cells was < 500 nM in each case.

Regarding `N#Cc1cc(-c2cccc3ncoc23)c(C2CC2)nc1N1CCN(C(=O)C2CC2)[C@H](C2CC2)C1` [Compound 483, (R)-5-(benzo[d]oxazol-7-yl)-2-(4-(cyclopropanecarbonyl)-3-cyclopropylpiperazin-1-yl)-6-cyclopropylnicotinonitrile], the half-maximal inhibitory concentration (IC50) was 1000 to 10000 nM in the assay on HT1080 cells, < 500 nM at IDH1 R132H and 500 to 1000 nM with U87MG cells.

`COCCC(=O)N1CCN(c2nc(C3CC3)c(-c3cccc(N)c3)cc2C#N)C[C@H]1C` [Compound 285, (R)-5-(3-aminophenyl)-6-cyclopropyl-2-(4-(3-methoxypropanoyl)-3-methylpiperazin-1-yl)nicotinonitrile]: the IC50 is 500 to 1000 nM in the assay with HT1080 cells, < 500 nM at IDH1 R132H and 1000 to 10000 nM in the assay with U87MG cells.

As for `C=Cc1cc(-c2cc(C#N)c(N3CCN(C(=O)CCCO)[C@H](C4CC4)C3)nc2C2CC2)ccn1` [Compound 753, (R)-2-cyclopropyl-6-(3-cyclopropyl-4-(4-hydroxybutanoyl)piperazin-1-yl)-2′-vinyl-3,4′-bipyridine-5-carbonitrile], the half-inhibitory concentration (IC50) in the assay on HT1080 cells, on IDH1 R132H and in the assay on U87MG cells was < 500 nM each time.

Turning to `C=Cc1cc(-c2cc(C#N)c(N3CCN(C(=O)COC)[C@H](C4CC4)C3)nc2C2CC2)cnn1` [Compound 715, (R)-6-cyclopropyl-2-(3-cyclopropyl-4-(2-methoxyacetyl)piperazin-1-yl)-5-(6-vinylpyridazin-4-yl)nicotinonitrile], the half-maximal inhibitory concentration (IC50) in the assay on HT1080 cells, at IDH1 R132H and with U87MG cells was < 500 nM throughout.

For orientation: IC50 means the concentration needed to halve the response being measured.
